Where “and” joins values, the source holds several entries; their conditions need not be identical. Identical values can stand only once. Like-named read-outs stand apart in the source and are kept apart here.
Key:
[1] = Crossover pharmacokinetics in dogs, oral vs 30-min intravenous infusion, LC-MS/MS; format: in vivo, male beagle dogs; settings: for AUC(0-inf): read-out: AUC(inf) of L-lysine-d-amphetamine; for Cmax: read-out: Cmax of L-lysine-d-amphetamine; for MRT: read-out: MRT of L-lysine-d-amphetamine; for Vd: read-out: Vss of L-lysine-d-amphetamine; for half-life: read-out: t1/2 of L-lysine-d-amphetamine (converted)
From the text: This was a non-randomized, two-treatment crossover study. All animals were maintained on their normal diet and were fasted overnight prior to each dose administration. L-lysine-d-amphetamine dose was based on the body weight measured on the morning of each dosing day. The actual dose delivered was based on syringe weight before and after dosing. Serial blood samples were obtained from each animal by direct venipuncture of a jugular vein using vacutainer tubes containing sodium heparin as the anticoagulant. Derived plasma samples were stored frozen until shipment to the Quest Pharmaceutical Services, Inc. (Newark, Del.). Pharmacokinetic analysis of the plasma assay results was conducted by Calvert. Animals were treated as follows:
Oral: The test article was administered to each animal via a single oral gavage. On Day 1, animals received the oral dose by gavage using an esophageal tube attached to a syringe. Dosing tubes were flushed with approximately 20 mL tap water to ensure the required dosing solution was delivered.
Intravenous: On Day 8, animals received L-lysine-d-amphetamine as a single 30-minute intravenous infusion into a cephalic vein.
Blood: Serial blood samples (2 mL) were collected using venipuncture tubes containing sodium heparin. Blood samples were taken at 0, 0.25, 0.5, 1, 2, 4, 8, 12, 24, 48, and 72 hours post-oral dosing. […] Collected blood samples were chilled immediately.
Plasma: Plasma samples were obtained by centrifugation of blood samples. Duplicate plasma samples (about 0.2 mL each) were transferred into prelabeled plastic vials and stored frozen at approximately −70° C.
Microsoft Excel (Version 6, Microsoft Corp., Redmond, Wash.) was used for calculation of mean plasma concentration and graphing of the plasma concentration-time data. Pharmacokinetic analysis (non-compartmental) was performed using the WinNonlin® software program (Version 4.1, Pharsight, Inc. Mountain View, Calif.). The maximum concentration, Cmax, and the time to Cmax, Tmax, were observed values. The area under the plasma concentration-time curve (AUC) was determined using linear-log trapezoidal rules. The apparent terminal rate constant (λz) was derived using linear least-squares regression with visual inspection of the data to determine the appropriate number of points (minimum of 3 data points) for calculating λz. The AUC(0-inf) was calculated as the sum of AUC(0-t) and Cpred/λz, where Cpred was the predicted concentration at the time of the last quantifiable concentration. The plasma clearance (CL/F) was determined as the ratio of Dose/AUC (0-inf). The mean residence time (MRT) was calculated as the ratio of AUMC(0-inf)/AUC (0-inf), where AUMC(0-inf) was the area under the first moment curve from the time zero to infinity. The volume of distribution at steady state (Vss) was estimated as CL*MRT. Half-life was calculated as In2/λz. The oral bioavailability (F) was calculated as the ratio of AUC(0-inf) following oral dosing to AUC(0-inf) following intravenous dosing. Descriptive statistics (mean and standard deviation) of the pharmacokinetic parameters were calculated using Microsoft Excel.
Blood samples were collected up to 24 and 72 hour after the intravenous and oral does, respectively. Plasma samples were analyzed using a LC-MS/MS assay which provided an LLOQ of 1 ng/mL for both analytes.

[2] = Serum and brain tissue levels after oral administration, LC/MS/MS; settings: rat, 5 mg/kg d-amphetamine base
[3] = Intranasal bioavailability in rats, plasma d-amphetamine by ELISA; settings: rat, 3 mg/kg
[4] = Kitchen tests: release of amphetamine by water, acid, base and heat; settings: heated to boiling for 20-60 minutes
[5] = Bolus intravenous bioavailability in rats, LC/MS/MS; settings: rat
[6] = Intranasal bioavailability in rats, LC/MS/MS; settings: male, Sprague-Dawley, rat, plasma, inhaled or intranasal, 3 mg/kg
[7] = test system: Sprague Dawley rats; assay: Single-dose oral toxicity; format: in vivo; settings: rat; for Observable signs: single oral dose
Description: Three male and three female Sprague Dawley rats per group were given a single oral administration of L-lysine-d-amphetamine at 0.1, 1.0, 10, 60, 100 or 1000 mg/kg (Table 44).
Animals found dead, or sacrificed moribund were necropsied and discarded. A total of one animal/sex/group was necropsied upon scheduled or unscheduled death.

[8] = male beagle dogs 1-3 and Mean, 30-min iv infusion, 2 mg/kg/h (free form), 2 mg/kg
[9] = male beagle dogs 1-3 and Mean, oral, 2 mg/kg (free form), 2 mg/kg
[10] = male, beagle, dog, plasma, iv, 1 mg/kg, male beagle dog, IV, 1 mg/kg d-amphetamine base, mean
[11] = male, beagle, dog, plasma, iv, 2 mg/kg, male beagle dogs 1-3 and Mean, 30-min iv infusion, 2 mg/kg/h (free form)
[12] = male, beagle, dog, plasma, po, 1 mg/kg, male beagle dog, oral, 1 mg/kg d-amphetamine base, mean

CC(Cc1ccccc1)NC(=O)C(N)CCCCN [L-lysine-d-amphetamine, 2,6-diaminohexanoic acid-(1-methyl-2-phenylethyl)-amide]
Tmax ([1]; dog, plasma, male beagle dogs 1-3 and median, 30-min iv infusion, 2 mg/kg/h (free form), read-out: Tmax of L-lysine-d-amphetamine): 29.4 min
Tmax ([1]; dog, plasma, male beagle dogs 1-3 and median, oral, 2 mg/kg (free form), read-out: Tmax of L-lysine-d-amphetamine): 30 min
AUC(0-t) of L-lysine-d-amphetamine [1, 8]: 898.2 ng·h/mL
AUC(inf) of L-lysine-d-amphetamine [1, 8]: 900.2 ng·h/mL and 1076.1 ng·h/mL
CL of L-lysine-d-amphetamine [1, 8]: 37.03 mL/min/kg and 30.98 mL/min/kg
Cmax of L-lysine-d-amphetamine [1, 8]: 1470.3 ng/mL
MRT of L-lysine-d-amphetamine [1, 8]: 21.6 min and 19.2 min
Vss of L-lysine-d-amphetamine [1, 8]: 0.8074 L/kg
t1/2 of L-lysine-d-amphetamine [1, 8]: 43.2 min
AUC(0-t) of L-lysine-d-amphetamine [1, 9]: 318.0 ng·h/mL
AUC(inf) of L-lysine-d-amphetamine [1, 9]: 312.0 ng·h/mL and 277.1 ng·h/mL
CL/F of L-lysine-d-amphetamine [1, 9]: 106.8 mL/min/kg and 120.3 mL/min/kg
F of L-lysine-d-amphetamine [1, 9]: 34.3% and 34.0% and 30.8%
MRT of L-lysine-d-amphetamine [1, 9]: 40.8 min
t1/2 of L-lysine-d-amphetamine [1, 9]: 27 min and 14.4 min
AUC(0-inf) [1, 10]: 964 ng·h/mL
Cmax [1, 10]: 1650 ng/mL
MRT [1, 10]: 19.8 min
Vd [1, 10]: 0.689 L/kg
half-life [1, 10]: 52.8 min
Tmax ([1]; male, beagle, dog, plasma, iv, 1 mg/kg, read-out: Tmax of L-lysine-d-amphetamine (median)): 29.4 min
AUC(0-t) ([1]; male, beagle, dog, plasma, iv, 2 mg/kg, male beagle dogs 1-3 and Mean, 30-min iv infusion, 2 mg/kg/h (free form), read-out: AUC(0-t) of L-lysine-d-amphetamine): 914 ng·h/mL
AUC(0-inf) [1, 11]: 917 ng·h/mL
clearance ([1]; male, beagle, dog, plasma, iv, 2 mg/kg, male beagle dogs 1-3 and Mean, 30-min iv infusion, 2 mg/kg/h (free form), read-out: CL of L-lysine-d-amphetamine (converted)): 36.4 mL/min/kg
Cmax [1, 11]: 1650 ng/mL
MRT [1, 11]: 18 min
Vd [1, 11]: 0.656 L/kg
half-life [1, 11]: 63 min
AUC(0-inf) [1, 12]: 319 ng·h/mL
CL/F ([1]; male, beagle, dog, plasma, po, 1 mg/kg, male beagle dog, oral, 1 mg/kg d-amphetamine base, mean, read-out: CL/F of L-lysine-d-amphetamine (converted)): 106 mL/min/kg
Cmax [1, 12]: 328 ng/mL
MRT [1, 12]: 48.6 min
half-life [1, 12]: 23.4 min
bioavailability ([1]; male, beagle, dog, plasma, po, 1 mg/kg, read-out: F (absolute oral bioavailability) of L-lysine-d-amphetamine): 33%
Tmax ([1]; male, beagle, dog, plasma, po, 1 mg/kg, read-out: Tmax of L-lysine-d-amphetamine (median)): 30 min
Intact conjugate in serum [2]: present in appreciable amounts in serum
Release of d-amphetamine into circulation [3]: did not release any significant amount of d-amphetamine
amphetamine detected after treatment: Baking Powder [4]: 0%
amphetamine detected after treatment: Baking Soda [4]: 0%
amphetamine detected after treatment: Tap Water [4]: 0%
amphetamine detected after treatment: Vinegar [4]: 0%
Tmax ([5]; male, Sprague-Dawley, plasma, iv, […]): 4.98 min
Cmax of d-amphetamine relative to d-amphetamine ([5]; bolus intravenous): about one-fourth
AUC(0-inf) [6]: 9140 ng·h/mL
AUC(0-t) [6]: 2580 ng·h/mL
Cmax [6]: 3350 ng/mL
Tmax [6]: 15 min
Deaths ([7]; single oral 1000 mg/kg, 7 days): only one death occurred out of a group of six animals
Observable signs ([7]; Groups 1-3 (doses 0.1 to 1000 mg/kg in six groups)): no observable signs
Observable signs ([7]; Groups 4-6 (doses 0.1 to 1000 mg/kg in six groups)): increased motor activity within two hours post-dose

From patent US7375083B2, “Pharmaceutical compositions for prevention of overdose or abuse” (Shire LLC, priority 2003, dated 2008)
